From the supplement of paper PMC10307832

Assays:
Test in all cases: relative viability (nuclei count vs DMSO), 5 days (fraction); higher = more cells survive
[1] = tested on: NCI-H596
In short: (§1)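 Lung cancer cell lines were pin-tool dosed in 1536-well plates on the day after seeding, with either a lone drug or a fixed anchor-drug dose plus five library-drug doses (not always all listed) in √10 steps. Nuclei were counted on 4× images after 5 days. Relative viability is the ratio of treated-well to vehicle-well nuclei counts, with each value a median of duplicate plates.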

[2] = tested on: COR-L23
In short: as §1

[3] = tested on: HCC-15
In short: as §1

[4] = tested on: LK-2
In short: as §1

[5] = tested on: HCC-44
In short: as §1

[6] = tested on: NCI-H1437
In short: as §1

[7] = tested on: NCI-H1975
In short: as §1

[8] = tested on: A-427
In short: as §1

[9] = tested on: SW 900
In short: as §1

[10] = tested on: NCI-H520
In short: as §1

[11] = tested on: COR-L 105
In short: as §1

[12] = tested on: NCI-H650
In short: as §1

[13] = tested on: EKVX
In short: as §1

[14] = tested on: HCC-827
In short: as §1

[15] = tested on: NCI-H838
In short: as §1

[16] = tested on: NCI-H1792
In short: as §1

[17] = tested on: NCI-H1666
In short: as §1

[18] = tested on: 201T
In short: as §1

[19] = tested on: SK-MES-1
In short: as §1

[20] = tested on: NCI-H522
In short: as §1

[21] = tested on: NCI-H23
In short: as §1

[22] = tested on: NCI-H441
In short: as §1

[23] = tested on: HARA
In short: as §1

[24] = tested on: LCLC-103H
In short: as §1

In the case of `Clc1ccc(Nc2nnc(Cc3ccncc3)c3ccccc23)cc1` [Vatalanib] + COc1cccc2cc(-c3nc([C@H]4CC[C@H](C(=O)O)CC4)n4ncnc(N)c34)[nH]c12 [OSI-027] (partner 0.5 µM), the relative viability ([1]; first compound 0.04 µM) is reported as 0.838, the relative viability ([1]; first compound 0.1265 µM) is reported as 0.651 and the relative viability ([1]; first compound 0.4 µM) is reported as 0.777. For the same molecule, the relative viability ([1]; first compound 1.265 µM) was 0.756, the relative viability ([1]; first compound 4 µM) was 0.5 and the relative viability ([2]; first compound 0.04 µM) was 0.814. The relative viability ([2]; first compound 0.1265 µM) was 0.765, the relative viability ([2]; first compound 0.4 µM) was 0.891 and the relative viability ([2]; first compound 1.265 µM) was 0.709. It also gave a relative viability ([2]; first compound 4 µM) of 0.722, a relative viability ([3]; first compound 0.04 µM) of 0.714 and a relative viability ([3]; first compound 0.1265 µM) of 0.724. The relative viability ([3]; first compound 0.4 µM) was 0.535, the relative viability ([3]; first compound 1.265 µM) was 0.582 and the relative viability ([3]; first compound 4 µM) was 0.523. For the same molecule, the relative viability ([4]; first compound 0.04 µM) was 0.211, the relative viability ([4]; first compound 0.1265 µM) was 0.208 and the relative viability ([4]; first compound 0.4 µM) was 0.214. It also gave a relative viability ([4]; first compound 1.265 µM) of 0.196, a relative viability ([4]; first compound 4 µM) of 0.198 and a relative viability ([5]; first compound 0.04 µM) of 0.524. For the same molecule, the relative viability ([5]; first compound 0.1265 µM) was 0.652, the relative viability ([5]; first compound 0.4 µM) was 0.438 and the relative viability ([5]; first compound 1.265 µM) was 0.439. It also gave a relative viability ([5]; first compound 4 µM) of 0.355, a relative viability ([6]; first compound 0.04 µM) of 0.942 and a relative viability ([6]; first compound 0.1265 µM) of 0.949. It also gave a relative viability ([6]; first compound 0.4 µM) of 0.937, a relative viability ([6]; first compound 1.265 µM) of 0.792 and a relative viability ([6]; first compound 4 µM) of 0.879. For the same molecule, the relative viability ([7]; first compound 0.04 µM) was 0.778, the relative viability ([7]; first compound 0.1265 µM) was 0.739 and the relative viability ([7]; first compound 0.4 µM) was 0.688. It also gave a relative viability ([7]; first compound 1.265 µM) of 0.568, a relative viability ([7]; first compound 4 µM) of 0.673 and a relative viability ([8]; first compound 0.04 µM) of 0.504. It also gave a relative viability ([8]; first compound 0.1265 µM) of 0.453, a relative viability ([8]; first compound 0.4 µM) of 0.494 and a relative viability ([8]; first compound 1.265 µM) of 0.464. For the same molecule, the relative viability ([8]; first compound 4 µM) was 0.486, the relative viability ([9]; first compound 0.1265 µM) was 0.531 and the relative viability ([9]; first compound 0.4 µM) was 0.565. It also gave a relative viability ([9]; first compound 1.265 µM) of 0.618, a relative viability ([9]; first compound 4 µM) of 0.501 and a relative viability ([10]; first compound 0.04 µM) of 0.25. The relative viability ([10]; first compound 0.1265 µM) was 0.23, the relative viability ([10]; first compound 0.4 µM) was 0.244 and the relative viability ([10]; first compound 1.265 µM) was 0.252. It also gave a relative viability ([10]; first compound 4 µM) of 0.224, a relative viability ([11]; first compound 0.04 µM) of 0.694 and a relative viability ([11]; first compound 0.1265 µM) of 0.59. For the same molecule, the relative viability ([11]; first compound 0.4 µM) was 0.721, the relative viability ([11]; first compound 1.265 µM) was 0.721 and the relative viability ([11]; first compound 4 µM) was 0.561. It also gave a relative viability ([12]; first compound 0.04 µM) of 0.627, a relative viability ([12]; first compound 0.1265 µM) of 0.49 and a relative viability ([12]; first compound 1.265 µM) of 0.491. The relative viability ([12]; first compound 4 µM) was 0.523, the relative viability ([13]; first compound 0.04 µM) was 0.743 and the relative viability ([13]; first compound 0.1265 µM) was 0.663. For the same molecule, the relative viability ([13]; first compound 0.4 µM) was 0.663, the relative viability ([13]; first compound 4 µM) was 0.643 and the relative viability ([14]; first compound 0.04 µM) was 0.818. The relative viability ([14]; first compound 0.1265 µM) was 0.729, the relative viability ([14]; first compound 0.4 µM) was 0.739 and the relative viability ([14]; first compound 1.265 µM) was 0.744. The relative viability ([14]; first compound 4 µM) was 0.705, the relative viability ([15]; first compound 0.04 µM) was 0.428 and the relative viability ([15]; first compound 0.1265 µM) was 0.384. For the same molecule, the relative viability ([15]; first compound 0.4 µM) was 0.379, the relative viability ([15]; first compound 1.265 µM) was 0.404 and the relative viability ([15]; first compound 4 µM) was 0.443. It also gave a relative viability ([16]; first compound 0.04 µM) of 0.678, a relative viability ([16]; first compound 0.1265 µM) of 0.68 and a relative viability ([16]; first compound 0.4 µM) of 0.704. The relative viability ([16]; first compound 1.265 µM) was 0.707, the relative viability ([16]; first compound 4 µM) was 0.631 and the relative viability ([17]; first compound 0.04 µM) was 0.852. It also gave a relative viability ([17]; first compound 0.1265 µM) of 0.815, a relative viability ([17]; first compound 0.4 µM) of 0.883 and a relative viability ([17]; first compound 1.265 µM) of 0.802. For the same molecule, the relative viability ([17]; first compound 4 µM) was 0.82, the relative viability ([18]; first compound 0.04 µM) was 0.759 and the relative viability ([18]; first compound 0.1265 µM) was 0.698. The relative viability ([18]; first compound 0.4 µM) was 0.889, the relative viability ([18]; first compound 1.265 µM) was 0.657 and the relative viability ([18]; first compound 4 µM) was 0.666. For the same molecule, the relative viability ([19]; first compound 0.04 µM) was 0.634, the relative viability ([19]; first compound 0.1265 µM) was 0.588 and the relative viability ([19]; first compound 0.4 µM) was 0.77. For the same molecule, the relative viability ([19]; first compound 1.265 µM) was 0.578, the relative viability ([19]; first compound 4 µM) was 0.575 and the relative viability ([20]; first compound 0.04 µM) was 0.703. The relative viability ([20]; first compound 0.1265 µM) was 0.677, the relative viability ([20]; first compound 0.4 µM) was 0.73 and the relative viability ([20]; first compound 1.265 µM) was 0.714. It also gave a relative viability ([20]; first compound 4 µM) of 0.796, a relative viability ([21]; first compound 0.04 µM) of 0.634 and a relative viability ([21]; first compound 0.1265 µM) of 0.613. For the same molecule, the relative viability ([21]; first compound 0.4 µM) was 0.779, the relative viability ([21]; first compound 1.265 µM) was 0.517 and the relative viability ([21]; first compound 4 µM) was 0.387. It also gave a relative viability ([22]; first compound 0.04 µM) of 0.581, a relative viability ([22]; first compound 0.1265 µM) of 0.504 and a relative viability ([22]; first compound 0.4 µM) of 0.597. For the same molecule, the relative viability ([22]; first compound 1.265 µM) was 0.658, the relative viability ([22]; first compound 4 µM) was 0.713 and the relative viability ([23]; first compound 0.04 µM) was 0.506. It also gave a relative viability ([23]; first compound 0.1265 µM) of 0.595, a relative viability ([23]; first compound 0.4 µM) of 0.71 and a relative viability ([23]; first compound 1.265 µM) of 0.492. For the same molecule, the relative viability ([23]; first compound 4 µM) was 0.422, the relative viability ([24]; first compound 0.04 µM) was 0.496 and the relative viability ([24]; first compound 0.1265 µM) was 0.412. It also gave a relative viability ([24]; first compound 0.4 µM) of 0.55, a relative viability ([24]; first compound 1.265 µM) of 0.503 and a relative viability ([24]; first compound 4 µM) of 0.457.
